Reference: ChEMBL document CHEMBL1136546, “SLV310, a novel, potential antipsychotic, combining potent dopamine D2 receptor antagonism with serotonin reuptake inhibition” (Bioorg Med Chem Lett, 2003)

Tests used:
Mus musculus [1] = assay: Dopaminergic antagonistic activity was determined in vivo by antagonising apomorphine induced climbing behavior (APO) in mice by oral administration; format: functional
Mus musculus [2] = assay: Serotonin reuptake activity was determined in vivo by potentiation of 5-hydroxytryptophan induced serotonin syndrome like behavior in mice by oral administration; format: functional
D(2) dopamine receptor = D(2) dopamine receptor (Homo sapiens, UniProt P14416); assay: In vitro binding affinity at human cloned dopamine receptor D2 (long) stably expressed in CHO cells by [3H]spiperone displacement.; format: cell-based
Chain of D(2) dopamine receptor (P14416 whole entry): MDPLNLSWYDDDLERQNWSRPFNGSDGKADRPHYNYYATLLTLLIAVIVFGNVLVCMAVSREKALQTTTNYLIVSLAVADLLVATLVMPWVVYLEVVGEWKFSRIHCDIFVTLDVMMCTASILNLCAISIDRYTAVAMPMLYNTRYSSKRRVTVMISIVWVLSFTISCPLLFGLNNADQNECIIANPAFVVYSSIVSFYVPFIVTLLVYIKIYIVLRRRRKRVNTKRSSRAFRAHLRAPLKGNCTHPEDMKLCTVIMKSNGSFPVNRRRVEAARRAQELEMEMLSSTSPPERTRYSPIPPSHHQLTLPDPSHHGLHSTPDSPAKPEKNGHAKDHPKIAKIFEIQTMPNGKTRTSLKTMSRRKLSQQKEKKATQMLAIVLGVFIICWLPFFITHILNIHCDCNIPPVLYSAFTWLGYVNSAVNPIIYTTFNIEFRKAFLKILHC

[3] = target: Sodium-dependent serotonin transporter (Rattus norvegicus, UniProt P31652); assay: In vitro binding affinity for serotonin reuptake sites in rat frontal cortex membranes by [3H]paroxetine displacement.; format: cell membranes, Membrane
Chain of Sodium-dependent serotonin transporter (P31652 whole entry): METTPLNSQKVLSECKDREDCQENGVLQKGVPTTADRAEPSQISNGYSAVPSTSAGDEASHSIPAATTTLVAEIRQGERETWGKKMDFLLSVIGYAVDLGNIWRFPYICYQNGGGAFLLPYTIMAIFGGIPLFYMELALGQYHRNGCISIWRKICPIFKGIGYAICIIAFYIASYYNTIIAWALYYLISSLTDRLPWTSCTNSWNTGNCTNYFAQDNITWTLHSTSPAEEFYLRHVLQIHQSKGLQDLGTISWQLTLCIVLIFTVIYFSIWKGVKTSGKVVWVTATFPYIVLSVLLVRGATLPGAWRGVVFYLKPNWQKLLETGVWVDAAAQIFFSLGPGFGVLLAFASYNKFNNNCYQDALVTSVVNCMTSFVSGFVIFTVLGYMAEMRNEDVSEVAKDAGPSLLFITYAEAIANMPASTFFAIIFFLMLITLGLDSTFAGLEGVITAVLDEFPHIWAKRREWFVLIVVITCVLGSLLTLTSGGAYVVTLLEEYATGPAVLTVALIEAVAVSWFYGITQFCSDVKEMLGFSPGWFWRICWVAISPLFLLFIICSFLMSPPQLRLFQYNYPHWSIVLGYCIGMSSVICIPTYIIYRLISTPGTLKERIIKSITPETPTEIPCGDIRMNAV

Rattus norvegicus = assay: Effective dose to exhibit antipsychotic potency after oral administration in rats was determined; format: functional

For O=C1c2ccccc2C(=O)N1CCCCCN1CC=C(c2c[nH]c3ccccc23)CC1, the ED50 (Mus musculus [1]) was 14 mg/kg, the ED50 (Mus musculus [2]) was 7.1 mg/kg and the Ki (D(2) dopamine receptor) was 25 nM. For the same compound, the Ki [3] was 2.5 nM.

For O=C1c2ccccc2C(=O)N1CCCCCCCN1CC=C(c2c[nH]c3ccc(F)cc23)CC1, the Ki (D(2) dopamine receptor) was 25 nM and the Ki [3] was 0.8 nM.

For Cc1cccc2c1C(=O)N(CCCCCN1CC=C(c3c[nH]c4ccc(F)cc34)CC1)C2=O, the Ki (D(2) dopamine receptor) was 25 nM and the Ki [3] was 1 nM.

With Cc1ccc2c(c1)C(=O)N(CCCCCN1CC=C(c3c[nH]c4ccc(F)cc34)CC1)C2=O the Ki (D(2) dopamine receptor) was 20 nM and the Ki [3] was 3 nM.

With O=C1c2cccc(F)c2C(=O)N1CCCCCN1CC=C(c2c[nH]c3ccc(F)cc23)CC1 the ED50 (Mus musculus [1]) was 6.1 mg/kg, the ED50 (Mus musculus [2]) was 10 mg/kg and the Ki (D(2) dopamine receptor) was 12 nM. It also gave a Ki [3] of 0.4 nM.

O=C1c2ccccc2C(=O)N1CCCCN1CC=C(c2c[nH]c3ccc(F)cc23)CC1 was tested, and the Ki (D(2) dopamine receptor) was 16 nM and the Ki [3] was 0.6 nM.

O=C1c2ccccc2C(=O)N1CCCCCN1CC=C(c2c[nH]c3ccc(F)cc23)CC1 gave an ED50 (Mus musculus [1]) of 5.6 mg/kg, an ED50 (Rattus norvegicus) of 17.5 mg/kg and an ED50 (Mus musculus [2]) of 5.9 mg/kg. For the same compound, the Ki (D(2) dopamine receptor) was 5 nM and the Ki [3] was 2.5 nM.

O=C1c2cccc(F)c2C(=O)N1CCCCCN1CC=C(c2c[nH]c3ccccc23)CC1 was tested, and the ED50 (Mus musculus [1]) was > 20 mg/kg, the ED50 (Mus musculus [2]) was < 50 mg/kg and the Ki (D(2) dopamine receptor) was 25 nM. The Ki [3] was 0.8 nM.

For Cc1ccc2c(c1)C(=O)N(CCCCCN1CC=C(c3c[nH]c4ccccc34)CC1)C2=O, the Ki (D(2) dopamine receptor) was 40 nM and the Ki [3] was 2 nM.

For c1ccc2c(CCC3CCNCC3)c[nH]c2c1 [INDALPINE], the Ki (D(2) dopamine receptor) was > 1000 nM.

In the case of O=C1c2ccc(F)cc2C(=O)N1CCCCCN1CC=C(c2c[nH]c3ccc(F)cc23)CC1, the ED50 (Mus musculus [1]) is reported as 5 mg/kg, the ED50 (Mus musculus [2]) is reported as 10 mg/kg and the Ki (D(2) dopamine receptor) is reported as 10 nM. For the same compound, the Ki [3] was 1.3 nM.

Work on O=C(CCCN1CCC(O)(c2ccc(Cl)cc2)CC1)c1ccc(F)cc1 [HALOPERIDOL] yielded an ED50 (Mus musculus [1]) of 0.1 mg/kg.

O=C1c2ccccc2C(=O)N1CCCN1CC=C(c2c[nH]c3ccc(F)cc23)CC1 showed a Ki (D(2) dopamine receptor) of 20 nM and a Ki [3] of 25 nM.

For O=C1c2ccc(F)cc2C(=O)N1CCCCCN1CC=C(c2c[nH]c3ccccc23)CC1, the Ki (D(2) dopamine receptor) was 40 nM and the Ki [3] was 2 nM.

Work on C1=C(c2c[nH]c3ccccc23)CCNC1 yielded a Ki [3] of 6 nM.

Cc1cccc2c1C(=O)N(CCCCCN1CC=C(c3c[nH]c4ccccc34)CC1)C2=O showed a Ki (D(2) dopamine receptor) of 100 nM and a Ki [3] of 1 nM.

With O=C(CCCN1CCC(CCc2c[nH]c3ccccc23)CC1)c1ccc(F)cc1 the ED50 (Mus musculus [1]) was 11 mg/kg, the ED50 (Mus musculus [2]) was > 30 mg/kg and the Ki (D(2) dopamine receptor) was 40 nM. It also gave a Ki [3] of 2 nM.

With Cc1cccc2c(C3=CCN(CCCCCN4C(=O)c5ccccc5C4=O)CC3)c[nH]c12 the Ki (D(2) dopamine receptor) was 40 nM and the Ki [3] was 1.3 nM.

With O=C1c2ccccc2C(=O)N1CCCCCN1CC=C(c2c[nH]c3ccc(Cl)cc23)CC1 the Ki (D(2) dopamine receptor) was 20 nM and the Ki [3] was 16 nM.
